# Experimental data reported in paper PMC6201908, “Affinity, potency, efficacy, and selectivity of neurokinin A analogs at human recombinant NK2 and NK1 receptors” (PLoS ONE, 2018).
# pEC50, pKi: −log10 of the molar value. Like-named read-outs stand apart in the source and are kept apart here. Non-standard residues stand in square brackets, D forms with d. Residues, ends and D or L forms follow the SMILES beside them. NMeL = CN[C@@H](CC(C)C)C(=O)O; Nle = CCCC[C@H](N)C(=O)O; βAla = NCCC(=O)O
# Columns and labels:
# [1] = target: T1, human recombinant NK2 receptors (Homo sapiens, UniProt P21452); test: Displacement of [^125I]-NKA binding to CHO-hNK2 membranes; conditions: for Fold more selective for NK2 over septide site of NK1 receptor compared with NKA (binding): from Ki ratios
# T1 sequence (P21452 1-398): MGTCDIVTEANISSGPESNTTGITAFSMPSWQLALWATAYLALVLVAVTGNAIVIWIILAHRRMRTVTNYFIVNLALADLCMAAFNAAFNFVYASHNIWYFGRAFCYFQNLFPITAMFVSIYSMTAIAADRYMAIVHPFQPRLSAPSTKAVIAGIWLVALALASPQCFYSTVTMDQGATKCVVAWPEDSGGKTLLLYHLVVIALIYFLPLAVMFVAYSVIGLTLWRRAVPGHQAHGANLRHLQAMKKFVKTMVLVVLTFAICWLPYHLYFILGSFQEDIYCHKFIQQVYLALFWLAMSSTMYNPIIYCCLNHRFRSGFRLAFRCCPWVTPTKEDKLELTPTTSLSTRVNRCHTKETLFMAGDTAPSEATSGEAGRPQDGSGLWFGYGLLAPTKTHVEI
# [2] = target: T2, human recombinant NK1 receptors (Homo sapiens, UniProt P25103); test: Displacement of [^3H]-Septide binding to CHO-hNK1 membranes (septide site); conditions: for pKi: displacement of [^3H]-Septide binding, read-out: NK1 [^3H]-Septide Ki; for Ki: read-out: [^3H]-Septide binding pKi (converted)
# T2 sequence (P25103 whole entry): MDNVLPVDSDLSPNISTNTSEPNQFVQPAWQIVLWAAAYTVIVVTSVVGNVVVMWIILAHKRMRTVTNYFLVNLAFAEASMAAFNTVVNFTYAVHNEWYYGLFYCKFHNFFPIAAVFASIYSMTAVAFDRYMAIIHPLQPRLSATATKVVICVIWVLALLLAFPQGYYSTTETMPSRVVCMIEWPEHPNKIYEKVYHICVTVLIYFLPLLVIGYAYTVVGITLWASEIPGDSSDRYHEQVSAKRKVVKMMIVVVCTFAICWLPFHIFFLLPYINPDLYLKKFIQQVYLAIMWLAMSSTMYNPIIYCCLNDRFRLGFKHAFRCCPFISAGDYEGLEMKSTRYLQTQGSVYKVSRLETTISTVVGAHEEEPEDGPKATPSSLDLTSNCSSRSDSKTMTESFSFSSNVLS
# Protocol: Protein expression was induced by addition of 5 mM sodium butyrate to the culture medium. […] The cell suspension was collected, placed on ice and centrifuged for 5 min at 4°C and 1200 rpm in a Beckman GS6R centrifuge. After removal of the supernatant the cell pellet was washed and collected by re-suspension in PBS and centrifugation. The final pellet was weighed and frozen at -80°C until use. Frozen pellets were thawed and homogenized in 10 volumes (w/v) of membrane preparation buffer (50 mM HEPES pH 7.4, 1 mM EDTA, 50 μg/mL bacitracin and protease inhibitors) using a Polytron Ultraturrax (twice for 15 s per cycle). The homogenate was centrifuged for 20 min at 4°C and 18500 rpm in a SL-50T Sorvall rotor and the pellet was re-suspended in membrane preparation buffer and re-homogenized as before. After centrifugation for 20 min at 4°C and 18500 rpm, the pellets were re-suspended in 5 volumes of membrane preparation buffer and divided into aliquots before freezing at -80°C. Protein concentration was determined using BioRad Protein Assay (Milan, Italy) with a BSA standard curve. Stock solutions of test compounds (10 mM) were prepared in DMSO and stored at -20°C until use. […] The goodness of fit between One-Site and Two-Site models was examined using Akaike's Information Corrected Criteria (AICC; [23]) in SAS v9.4 (SAS Institute, Cary NC) in order to select the best model for the data generated. […] Data from displacement experiments were plotted as the log [inhibitor concentration] (X axis) versus response expressed as TB in cpm (Y axis).
# [3] = target: T2, human recombinant NK1 receptors; test: cell-based
# Protocol: (§1) Human recombinant NK2 and NK1 receptors were generated using stably transfected CHO cells (CHO-hNK2 and CHO-hNK1, respectively). Human NK2 or NK1 receptor expressing vectors from Genecopeia (Rockville, USA) were transfected in CHO cells using the standard FuGENE protocol and cells were selected using 450 μg/mL geneticin (G418). Clones expressing the receptors were selected by functional coupling to calcium using FLIPR and a single clone for each receptor subtype was selected for expansion and stable cell line generation. Cells were cultured in a humidified incubator with 5% CO2 in F12K medium containing 10% heat inactivated FBS and 450 μg/mL geneticin and passaged on reaching 80–90% confluence.
# (§2) The agonist efficacy of the test compounds at recombinant human NK1 or NK2 receptors expressed in CHO cells was assessed by measuring the intracellular calcium response using the calcium-sensitive dye Fluo-4 AM (Eugene, OR, USA) and a Fluorometric Imaging Plate Reader (FLIPR, Molecular Devices, CA, USA). CHO-hNK1 and CHO-hNK2 cells were seeded into black walled clear-bottom 384-well plates at a density of 10,000 and 15,000 cells per well in 50 μL culture media, respectively, and grown overnight at 37°C in a humidified CO2-incubator. Cells were washed in washing buffer using an EMBLA 384 plate washer, leaving 20 μL of buffer per well after the final aspiration. Cells were then incubated at 37°C with the cytoplasmic Ca^2+ indicator Fluo-4 AM (final concentration 1 μM) in assay buffer (20 mM HEPES, 145 mM NaCl, 5 mM KCl, 5.5 mM glucose, 1 mM MgCl2 and 2 mM CaCl2, pH 7.4, 0.05% Pluronic F-127 and 0.1% BSA) containing 2.5 mM probenecid for 45–60 min (cell loading). Cells were then washed 3 times in washing buffer (20 mM HEPES, 145 mM NaCl, 5 mM KCl, 5.5 mM glucose, 1 mM MgCl2 and 2 mM CaCl2, pH 7.4 and 2.5 mM probenecid) using an EMBLA 384 plate washer, leaving 30 μL of buffer in each well after the last wash. Loaded cell plates were transferred to the FLIPR and calcium responses were monitored as described below. […] Concentration response curves of test compounds were generated in duplicate on at least two different occasions from the same stock solutions. Test solutions were prepared from 10 mM stock solutions in DMSO and 1 μL of each solution was stamped into V-bottom assay plates containing 49 μL assay buffer. The final concentration of DMSO was 0.5% in each well.
# [4] = target: T1, human recombinant NK2 receptors; test: cell-based
# Protocol: as §1, §2
# [5] = target: T2, human recombinant NK1 receptors; test: cell-based; assay type: cell-based; conditions: for EC50 / pEC50: CHO-hNK1 cells; for EC50: mean ± SD, read-out: cAMP stimulation pEC50 (converted); for pEC50: read-out: NK1 EC50 cAMP stimulation
# Protocol: (§3) CHO-hNK2 and CHO-hNK1 cells were transiently transfected with a CRE-LUC reporter construct using Lipofectamine 2000. At 24 h post-transfection, cells were plated at a density of 20,000 cells/well in a 96-well culture plate. […] Luciferase expression was measured after 5 h of incubation at 37°C (in the presence of 5% CO2) by adding Firefly Luciferase reagent, followed by Renilla Luciferase reagent. Luminescence was measured by using an Envision Multilabel flash lamp reader after addition of the first and second reagents. Data were normalized by calculating the ratio of the Firefly luminescence from the CRE reporter to the Renilla luminescence from the control Renilla Luciferase vector.
# [6] = target: T1, human recombinant NK2 receptors; test: cell-based; conditions: for EC50 / pEC50: CHO-hNK2 cells; for EC50: mean ± SD, read-out: cAMP stimulation pEC50 (converted); for pEC50: read-out: NK2 EC50 cAMP stimulation
# Protocol: as §3
# [7] = 5.0 nM [^3H]-Septide, CHO-hNK1 membranes 20 μg/well, 23°C, 1 h, mean ± SD
# [8] = Intracellular Ca^2+ pEC50, CHO-hNK2 cells, mean ± SD
# [9] = Intracellular Ca^2+ pEC50, CHO-hNK1 cells, mean ± SD
# [10] = NK1 EC50 intracellular calcium response, CHO-hNK1 cells
# [11] = NK2 EC50 intracellular calcium response, CHO-hNK2 cells
Compound,Fold more selective for NK2 over septide site of NK1 receptor compared with NKA (binding) [1],pKi [2],"pEC50 [4, 8]",cAMP stimulation % Max [5] [%],EC50 [5] [nM],pEC50 [5],"Ki [2, 7] [nM]",Intracellular Ca^2+ % Max [3] [%],"pEC50 [3, 9]","pEC50 [3, 10]",Intracellular Ca^2+ % Max [4] [%],"pEC50 [4, 11]",cAMP stimulation % Max [6] [%],EC50 [6] [nM],pEC50 [6],also measured
"CCCC[C@H](NC(=O)[C@H](CC(C)C)N(C)C(=O)CNC(=O)[C@@H](NC(=O)[C@H](Cc1ccccc1)NC(=O)[C@H](CCCNC(=N)N)NC(=O)[C@@H](N)CC(=O)O)C(C)C)C(N)=O [[Arg^5,MeLeu^9,Nle^10]-NKA(4-10), Asp-Arg-Phe-Val-Gly-(NMe-Leu)-Nle-NH2] (H-DRFVG[NMeL][Nle]-NH2; N-terminus assumed)",more than 28 fold,6.48,10.08,–,–,–,–,–,–,–,–,–,–,–,–,"[^125I]-NKA binding pKi ([1]; 0.1 nM [^125I]-NKA, CHO-hNK2 membranes 6 μg/well, 23°C, 3 h, mean ± SD): 9.23 ± 0.19; [^125I]-NKA binding Slope ([1]; Hill slope of displacement curve, 0.1 nM [^125I]-NKA, 23°C, 3 h, mean ± SD): -0.86 ± 0.09; NK1/NK2 ratio of Ki values ([1]; NK1 [^3H]-Septide Ki / NK2 [^125I]-NKA Ki): 561; [^3H]-Septide binding pKi [2, 7]: 6.48 ± 0.05; [^3H]-Septide binding Slope ([2]; Hill slope of displacement curve, 5.0 nM [^3H]-Septide, 23°C, 1 h, mean ± SD): -0.89 ± 0.13; Intracellular Ca^2+ % Max ([3]; CHO-hNK1 cells, % of maximal response observed with substance P, mean ± SD): 100.4 ± 1.5%; Intracellular Ca^2+ pEC50 ([3]; CHO-hNK1 cells, mean ± SD): 8.23 ± 0.32; Difference between pEC50 and pKi values ([3]; NK1 receptors, calcium response vs [^3H]-Septide binding): 56 fold; Intracellular Ca^2+ % Max ([4]; CHO-hNK2 cells, % of maximal response observed with NKA, mean ± SD): 89.0 ± 15.5%; NK1/NK2 ratio of EC50s for intracellular calcium response ([4]; NK1 EC50 / NK2 EC50): 70"
"CCCC[C@H](NC(=O)[C@H](CC(C)C)N(C)C(=O)CNC(=O)[C@@H](NC(=O)[C@H](Cc1ccccc1)NC(=O)[C@H](CCCCN)NC(=O)[C@@H](N)CC(=O)O)C(C)C)C(N)=O [[Lys^5,MeLeu^9,Nle^10]-NKA(4-10), Asp-Lys-Phe-Val-Gly-Leu(NMe)-Nle-NH2]",more than 28 fold,6.23,9.83,94.3 ± 21.6,1.78,8.75,589,107.6 ± 3.1,7.81,7.81,101.4 ± 3.0,9.82,107.4 ± 7.36,0.024,10.62,"pKi ([1]; NK2 [^125I]-NKA Ki, displacement of [^125I]-NKA binding): 9.06; pKi ([1]; [^125I]-NKA binding pKi, 0.1 nM [^125I]-NKA, CHO-hNK2 membranes 6 μg/well, 23°C, 3 h, mean ± SD): 9.06; Fold more selective than NKA for activation of NK2 over NK1 receptors (calcium) ([4]; from EC50 ratios): approximately 100 fold"
"CSCC[C@H](NC(=O)[C@H](CC(C)C)NC(=O)CCNC(=O)[C@@H](NC(=O)[C@H](Cc1ccccc1)NC(=O)[C@H](CO)NC(=O)[C@@H](N)CC(=O)O)C(C)C)C(N)=O [[β-Ala^8]-NKA(4–10), Asp-Ser-Phe-Val-[β-Ala]-Leu-Met-NH2] (H-DSFV[βAla]LM-NH2)",–,5.68,9.06,97.3 ± 24.8,5.62,8.25,2090,106.0 ± 11.5,7.33,7.33,102.2 ± 7.4,9.07,84.6 ± 13.1,0.0234,10.64,–
